# According to US7198946B2, “Screening for agents effective in decreasing abnormal macrophages associated with amyotrophic lateral sclerosis” (Pathologica, LLC, priority 2001, dated 2007):
# Test system: CD14+ circulating monocytes from ALS patients
# Test: Effect of polyamine analogs on CD14+ monocytes in cultured PBMCs, anti-CD14 flow cytometry
# Assay type: cell-based, human
# Details: 1.0 μM SL-11047, 6 days incubation; 6 ALS patients vs 1 normal subject and 1 MS patient (FIG. 5)
# Text: Peripheral blood mononuclear cells (PBMCs) are isolated from heparin-treated whole blood by layering over Percoll, density 1.087, (Pharmacia, Piscataway, N.J.) and followed by centrifugation at 800×g. The cells that collect at the Percoll/plasma interface are harvested and washed with 0.01 M phosphate-buffered saline (PBS). Isolated cells are then suspended in RPMI 1640 culture medium, with 10% fetal bovine serum, at a concentration of about 1×10^6 cells/ml. Cells are allocated to polyvinyl culture tubes at 1 ml/tube. A polyamine analog such as SL-11047 is added to 3 tubes, to achieve final concentrations of 1.0, 0.1, and 0.01 micromolar. A fourth tube, for control, receives no (zero) drug. […]
# On the […] of incubation, cells are removed from the incubator, washed with PBS and resuspended in PBS at 0.1 ml/tube. Detection of monocytes is detected by addition of fluorescein-conjugated anti-CD14 (DAKO Corp., Carpenteria, Calif.), for 20 minutes, at room temperature, protected from light. […]
# An experiment as described above was performed with CD14+ circulating monocytes from 6 ALS patients, 1 multiple sclerosis (MS) patient and 1 normal (non-ALS) control subject. In this experiment, the cells from a patient were incubated with or without polyamine analog SL-11047 for 6 days and survival of CD14+ cells was determined. […]
smiles,measurement,value
"CCNCCCNC/C=C\CNCCCNCC.Cl.Cl.Cl.Cl [SL-11047, N,N′-bis(3-ethylaminopropyl)-cis-but-2-ene-1,4-diamine tetrahydrochloride]",susceptibility to killing (percentage of CD14+ cells killed),substantially more susceptible to killing
